Results: US8865124B2, “Probe reagent for measuring oxidative stress” (Japan Science and Technology Agency, priority 2008, dated 2014)
Peptide text beside a SMILES is read from it. * marks the point of attachment. Cbz = O=C(OCc1ccccc1)*

Tests used:
[1] = test system: HeLa cells expressing the probe reagent mKO2-Nrf2—100-T2A-Keap1; experiment: Evaluation of a probe reagent by imaging of a cell (mKO2 fluorescence, time-lapse microscope); assay type: cell-based, human
Experimental: The prepared cDNA was transfected into HeLa cells that were cultured on a glass bottom dish by using FuGENE HD (manufactured by Roche Applied Science). The medium was replaced by the fresh medium 12 hours after the transfection. […] This microscope was equipped with a cooled CCD camera so that fluorescent images of a cell were able to be captured over time.
In order to verify that the constructed probe reagent responded correctly to oxidative stress as intended, diethylmaleate (DEM), which is an oxidative stress inducer, was added at a concentration of 100 μM, and the fluorescent intensity of mKO2 (ex; BP520-540HQ, em; BP555-600HQ) was measured. […] When ethanol, a solvent, was added at 0.1% as a control, the fluorescent intensity of mKO2 was not increased.
In order to verify that this probe reagent was degraded by a proteasome in a cell under conditions without being exposed to oxidative stress, an experiment using a proteasome inhibitor, MG132, was carried out. […] In contrast, after dimethylsulfoxide (DMSO), a solvent, was added at 0.1% as a control, the fluorescent intensity of mKO2 was not increased (FIG. 5).

[2] = test system: mKO2-Nrf2 fusion molecule in HeLa cells; experiment: Evaluation of a probe reagent by Western blotting using an anti-Nrf2 antibody; assay type: cell-based, human; conditions: MG132 10 μM versus 0.1% DMSO; FIG. 6
Experimental: First, to confirm that this probe reagent was separated into an mKO2-Nrf2 fusion molecule and Keap1 by the T2A peptide in a cell, the following experiments were performed. The cDNA, which was prepared using FuGENE® HD (Roche Applied Science Inc.), was transfected into HeLa cells cultured on a 35-mm dish. The medium was replaced by the fresh medium 12 hours after the transfection. After the 12 hours, DEM was added at a concentration of 100 μM, and ethanol was added at 0.1% as a control. The cells were cultured for further 8 hours. After that, Western blotting was conducted by using an anti-Nrf2 antibody (Santa Cruz Inc.). Both in the case of adding DEM and the case of adding ethanol, the band of the mKO2-Nrf2 fusion molecule was detected, but the band of the probe reagent comprising linked Keap1 was hardly observed.
Next, the fact that this probe reagent was degraded by a proteasome in a cell was confirmed by performing Western blotting. A proteasome inhibitor, MG132, was added at a concentration of 10 μM to HeLa cells that had been cultured in a similar manner. DMSO was added at 0.1% to control cells as well.

## CCOC(=O)/C=C\C(=O)OCC [DEM, diethylmaleate]
[1]; DEM added at 100 μM, HeLa cells transfected with probe cDNA, control 0.1% ethanol gave no increase, FIG. 3
  increase in the fluorescent intensity of mKO2: more than 10 times

## CC(C)C[C@@H](C=O)NC(=O)[C@H](CC(C)C)NC(=O)[C@H](CC(C)C)NC(=O)OCc1ccccc1 [MG132] (Cbz-Leu-Leu-Leu-aldehyde)
[2]
  band of the mKO2-Nrf2 fusion molecule (amount of probe reagent): strong band was detected compared to the case of adding DMSO
[1]; MG132 added at 10 μM, control 0.1% DMSO gave no increase, FIG. 5
  fluorescent intensity of mKO2: increase in the fluorescent intensity of mKO2 was observed

## probe reagent: fusion protein: fluorescent protein mKO2, Nrf2 amino acids 1 to 100, self-cleaved peptide T2A and Keap1; encoded by SEQ ID NO: 7
[1]; no oxidative stress loaded, 24 hours after medium change
  fluorescence of cells expressing the probe reagent before the experiment: only fluorescence at the background light level was detected
